According to article PMC11862108, “Nitro‐fatty acids‐mediated nitroalkylation modulates fine‐tuning catalase antioxidant function during salinity stress in plants” (Protein Science : A Publication of the Protein Society, 2025):

Assays:
[1] = biological target: T1, CAT from bovine liver (Bos taurus, UniProt P00432); experiment: H2O2 disappearance at […] nm; assay type: biochemical; conditions: 30 min preincubation at 25 °C; NO2-Ln concentration not given; MeOH vehicle control; regioisomer not defined
T1 construct: commercial bovine liver catalase (Sigma)
T1 sequence (P00432 2-527): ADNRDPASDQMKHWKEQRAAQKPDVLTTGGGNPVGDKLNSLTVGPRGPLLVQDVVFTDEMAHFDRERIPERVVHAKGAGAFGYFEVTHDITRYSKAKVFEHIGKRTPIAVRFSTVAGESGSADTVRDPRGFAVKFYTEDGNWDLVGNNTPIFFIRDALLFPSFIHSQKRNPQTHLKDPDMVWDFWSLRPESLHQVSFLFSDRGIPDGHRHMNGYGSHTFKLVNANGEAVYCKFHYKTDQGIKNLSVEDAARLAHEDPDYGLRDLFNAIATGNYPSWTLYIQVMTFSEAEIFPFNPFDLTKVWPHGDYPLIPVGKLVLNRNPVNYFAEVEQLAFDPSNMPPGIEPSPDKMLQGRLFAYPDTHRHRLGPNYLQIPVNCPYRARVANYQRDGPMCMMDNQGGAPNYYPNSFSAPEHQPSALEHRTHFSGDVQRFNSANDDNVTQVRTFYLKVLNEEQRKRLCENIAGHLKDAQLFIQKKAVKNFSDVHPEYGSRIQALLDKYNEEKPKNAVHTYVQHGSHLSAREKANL

[2] = biological target: T2, Arabidopsis recombinant CAT2 protein (Arabidopsis thaliana, UniProt P25819); experiment: H2O2 disappearance at […] nm; assay type: biochemical; conditions: 30 min preincubation at 25 °C; covalent (nitroalkylation of His); NO2-Ln concentration not given; MeOH vehicle control; regioisomer not defined
T2 construct: commercial recombinant protein (LSBio, Life Span BioSciences); heme enzyme
T2 sequence (P25819 1-492): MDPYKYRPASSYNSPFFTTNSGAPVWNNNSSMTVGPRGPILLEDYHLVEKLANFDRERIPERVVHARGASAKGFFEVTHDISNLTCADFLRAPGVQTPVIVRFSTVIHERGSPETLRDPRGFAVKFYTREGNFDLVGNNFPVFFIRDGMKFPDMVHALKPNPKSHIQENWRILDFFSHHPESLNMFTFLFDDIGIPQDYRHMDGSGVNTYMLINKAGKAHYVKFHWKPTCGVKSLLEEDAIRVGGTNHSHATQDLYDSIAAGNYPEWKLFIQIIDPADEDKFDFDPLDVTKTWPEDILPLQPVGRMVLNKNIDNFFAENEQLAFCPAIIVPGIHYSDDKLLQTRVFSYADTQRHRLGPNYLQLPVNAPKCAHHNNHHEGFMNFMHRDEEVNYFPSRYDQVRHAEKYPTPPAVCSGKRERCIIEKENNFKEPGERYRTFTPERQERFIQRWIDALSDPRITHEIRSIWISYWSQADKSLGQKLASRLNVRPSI

NO2-Ln
% inhibition [1]: 60%
% inhibition [2]: 36%
